Data published in patent US7960563B2, “Indazoles used to treat estrogen receptor beta mediated disorders” (Glaxo Group Limited, priority 2007, dated 2011).

Legend:
[1] = target: T1, ERbeta protein (Homo sapiens, UniProt Q92731); assay: ER beta FP binding assay; details: 6 nM ERbeta protein, 1.5 nM ER FP ligand (Fluormone EL Red), 3 hours at room temperature; read-out: pIC50 in the ER beta FP binding assay (converted)
T1 construct: […]; His6 (leader […]) (N)
Description: (§1) Assay Buffer (AB) (50 mM MOPES pH 7.5, 50 mM NaF, 2.5 mM CHAPs), in deionized water, 5 mM 1,4 dithiothreitol (DTT) added on day of the experiment. The appropriate amount of AB was placed in a plastic tube, adding solid DTT before the assay was run. AB with DTT was distributed to plastic tubes. We have found use of plastic to be important vs glass. A final concentration of 6 nM ERbeta protein was added to the tube followed by gentle inversion. A final concentration of 1.5 nM ER FP ligand (Fluormone™ EL Red 200 nM in 20 mM Tris, 90% Methanol purchased from Invitrogen catalogue no P3030) was added to the same tube followed by gentle inversion. This was allowed to sit for 5-10 minutes before adding it to the 384 assay plate. Similar protocol was used for ERalpha with a final concentration of 4 nM ERalpha and 1.5 nM ER FP ligand.
(§2) 384 plates containing test compounds dissolved in 100% DMSO at 1 mM were serially diluted (1:3) by a Beckman FX. Serial diluted test compounds were added, […], to the assay plates with a maximum final concentration of 10 uM. Once the assay plates were ready, 10 uL of the above reagents were added to the appropriate set of plates with the Thermo combi. These plates were then sealed and place at room temperature for 3 hours.
The plates were then placed on the Molecular Devices Analyst and counted (excitation 535 nm, emission 590 nm with a 561 Dichroic mirror). Data was normalized to control then fitted to a non-linear least squares algorithm (see below).
pIC50 Calculation y=a+((b−a)/(1+(10^x/10^c)^d) Results
The amino acid sequence of human ER beta used in this assay is […]

[2] = target: T2, ERalpha (Homo sapiens, UniProt P03372); assay: ER alpha FP binding assay; details: ER beta versus ER alpha, FP binding assays
T2 construct: […]; His6 (leader […]G) (N)
T2 sequence (P03372 with tags, fused parts or gaps): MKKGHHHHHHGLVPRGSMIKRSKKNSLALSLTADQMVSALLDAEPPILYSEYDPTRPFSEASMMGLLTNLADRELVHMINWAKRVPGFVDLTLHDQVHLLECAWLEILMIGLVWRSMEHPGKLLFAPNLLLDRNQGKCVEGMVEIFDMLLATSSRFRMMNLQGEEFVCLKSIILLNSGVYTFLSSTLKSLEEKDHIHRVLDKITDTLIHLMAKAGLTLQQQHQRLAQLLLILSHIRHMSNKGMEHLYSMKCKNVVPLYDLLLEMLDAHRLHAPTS
Description: as §1, §2
The plates were then placed on the Molecular Devices Analyst and counted (excitation 535 nm, emission 590 nm with a 561 Dichroic mirror). […]

T1 sequence (Q92731 with tags, fused parts or gaps): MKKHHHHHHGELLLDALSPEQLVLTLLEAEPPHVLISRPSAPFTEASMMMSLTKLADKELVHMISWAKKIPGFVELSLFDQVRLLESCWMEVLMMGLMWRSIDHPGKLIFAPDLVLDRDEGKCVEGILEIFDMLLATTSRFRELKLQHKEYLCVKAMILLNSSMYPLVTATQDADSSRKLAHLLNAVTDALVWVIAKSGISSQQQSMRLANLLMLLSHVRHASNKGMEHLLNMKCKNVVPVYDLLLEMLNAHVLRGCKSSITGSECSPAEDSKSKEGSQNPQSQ

Row | Compound | IC50 [1] [nM] | selectivity versus ER alpha [2] [fold]
1 | Oc1ccc(-n2ncc3c(O)cccc32)cc1F [Example 1, 1-(3-Fluoro-4-hydroxyphenyl)-1H-indazol-4-ol] | < 100 | > 10
2 | N#Cc1cc(O)c2cnn(-c3ccc(O)c(F)c3)c2c1 [Example 3, 1-(3-Fluoro-4-hydroxyphenyl)-4-hydroxy-1H-indazole-6-carbonitrile] | < 100 | 
3 | Oc1ccc(-n2ncc3c(O)cc(F)cc32)cc1F [Example 4, 6-Fluoro-1-(3-fluoro-4-hydroxyphenyl)-1H-indazol-4-ol] | < 100 | 
4 | C=Cc1cc(O)c2cnn(-c3ccc(O)c(F)c3)c2c1 [Example 6, 6-Ethenyl-1-(3-fluoro-4-hydroxyphenyl)-1H-indazol-4-ol] | < 100 | 
5 | CCc1cc(O)c2cnn(-c3ccc(O)c(F)c3)c2c1 [Example 7, 6-Ethyl-1-(3-fluoro-4-hydroxyphenyl)-1H-indazol-4-ol] | < 100 | 
6 | Oc1ccc(-n2ncc3c(O)cc(Cl)cc32)cc1F [Example 8, 6-Chloro-1-(3-fluoro-4-hydroxyphenyl)-1H-indazol-4-ol] | < 100 | 
7 | Cc1cc(O)c2cnn(-c3ccc(O)c(F)c3)c2c1 [Example 9, 1-(3-Fluoro-4-hydroxyphenyl)-6-methyl-1H-indazol-4-ol] | < 100 | 
8 | Oc1ccc(-n2ncc3c(O)cccc32)cc1Cl [Example 17, 1-(3-Chloro-4-hydroxyphenyl)-1H-indazol-4-ol] | < 100 | 

The next lines start with results.

Row | IC50 [1] [nM] | Compound | selectivity versus ER alpha [2] [fold]
9 | < 100 | Oc1ccc(-n2ncc3c(O)cc(Br)cc32)cc1F [Example 5, 6-Bromo-1-(3-fluoro-4-hydroxyphenyl)-1H-indazol-4-ol] | 
10 | < 100 | Oc1ccc(-n2ncc3c(O)c(F)ccc32)cc1F [Example 10, 5-Fluoro-1-(3-fluoro-4-hydroxyphenyl)-1H-indazol-4-ol] | 
11 | < 100 | Oc1ccc(-n2ncc3c(O)c(Br)ccc32)cc1F [Example 11, 5-Bromo-1-(3-fluoro-4-hydroxyphenyl)-1H-indazol-4-ol] | 
12 | < 100 | Oc1ccc(-n2ncc3c(O)ccc(F)c32)cc1F [Example 13, 7-Fluoro-1-(3-fluoro-4-hydroxyphenyl)-1H-indazol-4-ol] | 
13 | < 100 | Oc1ccc(-n2ncc3c(O)ccc(Cl)c32)cc1F [Example 14, 7-Chloro-1-(3-fluoro-4-hydroxyphenyl)-1H-indazol-4-ol] | 
